Measurements from PubChem BioAssay AID2124 (Sanford-Burnham Center for Chemical Genomics, 2009).
Results filed as inconclusive are left out.

Experiments:
[1] = tested on: cells, GFP-channel autofluorescence, high-content imaging; assay: cell-permeable autofluorescent compounds in GFP channel, dose response, artefact control, imaging, high-content imaging (AID 2124);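 as to cell count: cells exposed to compound for 48 hours before fixing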
[2] = as above; details: cells, GFP-channel autofluorescence, high-content imaging; cell count; at 10 µM

CN1CC=C2C(C#N)=C(N)C(C#N)(C#N)[C@H](c3cccc(Cl)c3)C2C1 (some centres not stated)
EC50 [1]: 9.06 µM
cell count [2]: 2960 cells
